Measured values: ChEMBL document CHEMBL4229379, “Synthesis and structure-activity relationship of novel bisindole amidines active against MDR Gram-positive and Gram-negative bacteria” (Eur J Med Chem, 2018)
In brackets after ≈: the same amount, converted by molar mass.

Columns and labels:
[1] = test system: Staphylococcus epidermidis; experiment: Antibacterial activity against methicillin-sensitive Staphylococcus epidermidis ATCC 12228 after 18 hrs by CLSI broth microdilution method; format: functional; conditions: ATCC 12228, 18 h
[2] = test system: Staphylococcus epidermidis; experiment: Antibacterial activity against methicillin-resistant Staphylococcus epidermidis 12-8 after 18 hrs by CLSI broth microdilution method; format: functional; conditions: 12-8, 18 h
Staphylococcus aureus [3] = experiment: Antibacterial activity against methicillin-sensitive Staphylococcus aureus ATCC 29213 after 18 hrs by CLSI broth microdilution method; format: functional; conditions: ATCC 29213, 18 h
Staphylococcus aureus [4] = experiment: Antibacterial activity against methicillin-resistant Staphylococcus aureus 12-33 after 18 hrs by CLSI broth microdilution method; format: functional; conditions: 12-33, 18 h
Enterococcus faecalis [5] = experiment: Antibacterial activity against vancomycin-sensitive Enterococcus faecalis ATCC 29212 after 18 hrs by CLSI broth microdilution method; format: functional; conditions: ATCC 29212, 18 h
Enterococcus faecalis [6] = experiment: Antibacterial activity against vancomycin-resistant Enterococcus faecalis 09-9 after 18 hrs by CLSI broth microdilution method; format: functional; conditions: 09-9, 18 h
Enterococcus faecium [7] = experiment: Antibacterial activity against vancomycin-resistant Enterococcus faecium ATCC 700221 after 18 hrs by CLSI broth microdilution method; format: functional; conditions: ATCC 700221, 18 h
Enterococcus faecium [8] = experiment: Antibacterial activity against vancomycin-sensitive Enterococcus faecium 12-3 after 18 hrs by CLSI broth microdilution method; format: functional; conditions: 12-3, 18 h
Escherichia coli [9] = experiment: Antibacterial activity against extended-spectrum beta-lactamase deficient Escherichia coli ATCC 25922 after 18 hrs by CLSI broth microdilution method; format: functional; conditions: ATCC 25922, 18 h
Escherichia coli [10] = experiment: Antibacterial activity against extended-spectrum beta-lactamase harboring Escherichia coli 12-15 after 18 hrs by CLSI broth microdilution method; format: functional; conditions: 12-15, 18 h
Klebsiella pneumoniae [11] = experiment: Antibacterial activity against extended-spectrum beta-lactamase harboring Klebsiella pneumoniae ATCC 700603 after 18 hrs by CLSI broth microdilution method; format: functional; conditions: Klebsiella pneumoniae, 700603, 18 h
Klebsiella pneumoniae [12] = experiment: Antibacterial activity against new delhi metallo-beta-lactamase-1 harboring Klebsiella pneumoniae ATCC BAA-2146 after 18 hrs by CLSI broth microdilution method; format: functional; conditions: ATCC BAA-2146, 18 h
Klebsiella pneumoniae [13] = experiment: Antibacterial activity against extended-spectrum beta-lactamase harboring Klebsiella pneumoniae 12-8 after 18 hrs by CLSI broth microdilution method; format: functional; conditions: 12-8, 18 h
Pseudomonas aeruginosa [14] = experiment: Antibacterial activity against Pseudomonas aeruginosa ATCC 27853 after 18 hrs by CLSI broth microdilution method; format: functional; conditions: ATCC 27853, 18 h
[15] = test system: Acinetobacter calcoaceticus; experiment: Antibacterial activity against Acinetobacter calcoaceticus ATCC 19606 after 18 hrs by CLSI broth microdilution method; format: functional; conditions: ATCC 19606, 18 h
Enterobacter cloacae = experiment: Antibacterial activity against Enterobacter cloacae ATCC 43560 after 18 hrs by CLSI broth microdilution method; format: functional; conditions: ATCC 43560, 18 h
Proteus mirabilis = experiment: Antibacterial activity against Proteus mirabilis 12-6 after 18 hrs by CLSI broth microdilution method; format: functional; conditions: 12-6, 18 h
[16] = Cytotoxicity against HEK293T cells assessed as reduction in cell viability after 48 hrs by MTS assay; format: cell-based, HEK-293T; conditions: human
[17] = test system: Staphylococcus epidermidis; experiment: Antibacterial activity against methicillin-sensitive Staphylococcus epidermidis 12-6 after 18 hrs by CLSI broth microdilution method; format: functional; conditions: 12-6, 18 h
Staphylococcus aureus [18] = experiment: Antibacterial activity against methicillin-resistant Staphylococcus aureus ATCC 33591 after 18 hrs by CLSI broth microdilution method; format: functional; conditions: ATCC 33591, 18 h
Staphylococcus aureus [19] = experiment: Antibacterial activity against methicillin-sensitive Staphylococcus aureus 15 after 18 hrs by CLSI broth microdilution method; format: functional; conditions: Staphylococcus aureus, 15, 18 h
Staphylococcus aureus [20] = experiment: Antibacterial activity against methicillin-sensitive Staphylococcus aureus 12-28 after 18 hrs by CLSI broth microdilution method; format: functional; conditions: 12-28, 18 h
Enterococcus faecalis [21] = experiment: Antibacterial activity against vancomycin-resistant Enterococcus faecalis ATCC 51299 after 18 hrs by CLSI broth microdilution method; format: functional; conditions: ATCC 51299, 18 h
Enterococcus faecalis [22] = experiment: Antibacterial activity against vancomycin-sensitive Enterococcus faecalis 12-5 after 18 hrs by CLSI broth microdilution method; format: functional; conditions: 12-5, 18 h
Enterococcus faecium [23] = experiment: Antibacterial activity against vancomycin-resistant Enterococcus faecium 12-1 after 18 hrs by CLSI broth microdilution method; format: functional; conditions: 12-1, 18 h
Escherichia coli [24] = experiment: Antibacterial activity against extended-spectrum beta-lactamase deficient Escherichia coli 1515 after 18 hrs by CLSI broth microdilution method; format: functional; conditions: Escherichia coli, 1515, 18 h
Escherichia coli [25] = experiment: Antibacterial activity against extended-spectrum beta-lactamase deficient Escherichia coli 12-14 after 18 hrs by CLSI broth microdilution method; format: functional; conditions: 12-14, 18 h
Klebsiella pneumoniae [26] = experiment: Antibacterial activity against extended-spectrum beta-lactamase deficient Klebsiella pneumoniae 7 after 18 hrs by CLSI broth microdilution method; format: functional; conditions: Klebsiella pneumoniae, 7, 18 h
Klebsiella pneumoniae [27] = experiment: Antibacterial activity against extended-spectrum beta-lactamase deficient Klebsiella pneumoniae 12-4 after 18 hrs by CLSI broth microdilution method; format: functional; conditions: 12-4, 18 h
Pseudomonas aeruginosa [28] = experiment: Antibacterial activity against Pseudomonas aeruginosa PAO1 after 18 hrs by CLSI broth microdilution method; format: functional; conditions: PAO1, 18 h
Pseudomonas aeruginosa [29] = experiment: Antibacterial activity against Pseudomonas aeruginosa 12-16 after 18 hrs by CLSI broth microdilution method; format: functional; conditions: 12-16, 18 h
Klebsiella aerogenes = experiment: Antibacterial activity against Enterobacter aerogenes ATCC 13048 after 18 hrs by CLSI broth microdilution method; format: functional; conditions: ATCC 13048, 18 h
Serratia marcescens = experiment: Antibacterial activity against Serratia marcescens ATCC 21074 after 18 hrs by CLSI broth microdilution method; format: functional; conditions: ATCC 21074, 18 h
Providencia rettgeri = experiment: Antibacterial activity against Providencia rettgeri ATCC 31052 after 18 hrs by CLSI broth microdilution method; format: functional; conditions: ATCC 31052, 18 h
Proteus vulgaris = experiment: Antibacterial activity against Proteus vulgaris ATCC 29905 after 18 hrs by CLSI broth microdilution method; format: functional; conditions: ATCC 29905, 18 h
[30] = test system: Stenotrophomonas maltophilia; experiment: Antibacterial activity against Stenotrophomonas maltophilia ATCC 13636 after 18 hrs by CLSI broth microdilution method; format: functional; conditions: ATCC 13636, 18 h
Citrobacter freundii = experiment: Antibacterial activity against Citrobacter freundii ATCC 43864 after 18 hrs by CLSI broth microdilution method; format: functional; conditions: ATCC 43864, 18 h

SMILES: CN1CCC2(CC1)CCN(C(=N)c1ccc3cc(-c4ccc(-c5cc6ccc(C(=N)N7CCC8(CCN(C)CC8)C7)cc6[nH]5)cc4)[nH]c3c1)C2
- MIC [1]: 2 µg/mL (≈ 3 µM)
- MIC [2]: 4 µg/mL (≈ 6 µM)
- MIC (Staphylococcus aureus [3]): 8 µg/mL (≈ 12 µM)
- MIC (Staphylococcus aureus [4]): 8 µg/mL (≈ 12 µM)
- MIC (Enterococcus faecalis [5]): 16 µg/mL (≈ 24 µM)
- MIC (Enterococcus faecalis [6]): 16 µg/mL (≈ 24 µM)
- MIC (Enterococcus faecium [7]): 16 µg/mL (≈ 24 µM)
- MIC (Enterococcus faecium [8]): 16 µg/mL (≈ 24 µM)
- MIC (Escherichia coli [9]): 8 µg/mL (≈ 12 µM)
- MIC (Escherichia coli [10]): 16 µg/mL (≈ 24 µM)
- MIC (Klebsiella pneumoniae [11]): 64 µg/mL (≈ 96 µM)
- MIC (Klebsiella pneumoniae [12]): 16 µg/mL (≈ 24 µM)
- MIC (Klebsiella pneumoniae [13]): 16 µg/mL (≈ 24 µM)
- MIC (Pseudomonas aeruginosa [14]): 32 µg/mL (≈ 48 µM)
- MIC [15]: > 128 µg/mL
- MIC (Enterobacter cloacae): > 128 µg/mL
- MIC (Proteus mirabilis): > 128 µg/mL
- CC50 at 48 h [16]: 28.4 µg/mL (≈ 42.7 µM)
- MIC [17]: 8 µg/mL (≈ 12 µM)
- MIC (Staphylococcus aureus [18]): 8 µg/mL (≈ 12 µM)
- MIC (Staphylococcus aureus [19]): 8 µg/mL (≈ 12 µM)
- MIC (Staphylococcus aureus [20]): 16 µg/mL (≈ 24 µM)
- MIC (Enterococcus faecalis [21]): 16 µg/mL (≈ 24 µM)
- MIC (Enterococcus faecalis [22]): 128 µg/mL (≈ 192 µM)
- MIC (Enterococcus faecium [23]): 16 µg/mL (≈ 24 µM)
- MIC (Escherichia coli [24]): 8 µg/mL (≈ 12 µM)
- MIC (Escherichia coli [25]): 16 µg/mL (≈ 24 µM)
- MIC (Klebsiella pneumoniae [26]): 8 µg/mL (≈ 12 µM)
- MIC (Klebsiella pneumoniae [27]): 16 µg/mL (≈ 24 µM)
- MIC (Pseudomonas aeruginosa [28]): 64 µg/mL (≈ 96 µM)
- MIC (Pseudomonas aeruginosa [29]): 128 µg/mL (≈ 192 µM)
- MIC (Klebsiella aerogenes): 16 µg/mL (≈ 24 µM)
- MIC (Serratia marcescens): > 128 µg/mL
- MIC (Providencia rettgeri): > 128 µg/mL
- MIC (Proteus vulgaris): 128 µg/mL (≈ 192 µM)
- MIC [30]: > 128 µg/mL
- MIC (Citrobacter freundii): 16 µg/mL (≈ 24 µM)
